According to patent US10745382B2 (BRISTOL-MYERS SQUIBB COMPANY, priority 2015, dated 2020):

Biological target: T1, PD-1/PD-L1 (Homo sapiens, UniProt Q9NZQ7)
T1 construct: made in house; host or cells: HEK293T
Test: PD-1/PD-L1 Homogenous Time-Resolved Fluorescence (HTRF) binding assay
Settings: PD-L1-His 10 nM, PD-1-Ig 20 nM; value given as range class; read-out: Range or IC50
Method in brief: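 Read-out is time-resolved FRET between europium cryptate-labelled anti-Ig (1 nM final) and APC-labelled anti-His (20 nM final), both dispensed onto the binding mix. Assay buffer: dPBS containing 0.1% bovine serum albumin and 0.05% Tween-20.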

T1 sequence (Q9NZQ7 with tags, fused parts or gaps): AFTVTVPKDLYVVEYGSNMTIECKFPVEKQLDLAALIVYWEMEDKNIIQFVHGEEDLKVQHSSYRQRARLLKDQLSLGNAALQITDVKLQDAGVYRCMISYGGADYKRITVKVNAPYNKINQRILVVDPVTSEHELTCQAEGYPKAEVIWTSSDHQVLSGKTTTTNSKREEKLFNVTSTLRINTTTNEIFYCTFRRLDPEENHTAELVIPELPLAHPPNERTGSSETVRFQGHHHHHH

| SMILES | IC50 |
| --- | --- |
| Cc1c(COc2cc(OCc3cncc(C(N)=O)c3)c(CN[C@H](CO)C(=O)O)cc2Cl)cccc1-c1cccc(OCCCN2CCC(O)(C(=O)O)CC2)c1 [Example 1032, (R)-1-(3-((3′-((5-((5-carbamoylpyridin-3-yl)methoxy)-4-(((1-carboxy-2-hydroxyethyl)amino)methyl)-2-chlorophenoxy)methyl)-2′-methyl-[1,1′-biphenyl]-3-yl)oxy)propyl)-4-hydroxypiperidine-4-carboxylic Acid] | 0.21 to 10 nM |
| Cc1c(COc2cc(OCc3cncc(C#N)c3)c(CN[C@H](CO)C(=O)O)cc2Cl)cccc1-c1cccc(OCCCN2CCC(O)(C(=O)O)CC2)c1 [Example 1033, (R)-1-(3-((3′-((4-(((1-carboxy-2-hydroxyethyl)amino)methyl)-2-chloro-5-((5-cyanopyridin-3-yl)methoxy)phenoxy)methyl)-2′-methyl-[1,1′-biphenyl]-3-yl)oxy)propyl)-4-hydroxypiperidine-4-carboxylic Acid] | 0.21 to 10 nM |
| C=CC(=O)NCCNCc1cc(Cl)c(OCc2cccc(-c3cccc(OCCCN4CC[C@@H](O)C4)c3C)c2C)cc1OCc1cncc(S(C)(=O)=O)c1 [Example 1034, (R)—N-(2-((5-chloro-4-((3′-(3-(3-hydroxypyrrolidin-1-yl)propoxy)-2,2′-dimethyl-[1,1′-biphenyl]-3-yl)methoxy)-2-((5-(methylsulfonyl)pyridin-3-yl)methoxy)benzyl)amino)ethyl)acrylamide] | 10 to 100 nM |
| Cc1c(COc2cc(OCc3cncc(C(N)=O)c3)c(CN[C@H](CO)C(=O)O)cc2Cl)cccc1-c1cccc(OCCCN2CCC(O)(C(=O)O)CC2)c1C [Example 1035, (R)-1-(3-((3′-((5-((5-carbamoylpyridin-3-yl)methoxy)-4-(((1-carboxy-2-hydroxyethyl)amino)methyl)-2-chlorophenoxy)methyl)-2,2′-dimethyl-[1,1′-biphenyl]-3-yl)oxy)propyl)-4-hydroxypiperidine-4-carboxylic Acid] | 0.21 to 10 nM |
| Cc1c(COc2cc(OCc3cncc(C#N)c3)c(CN[C@H](CO)C(=O)O)cc2Cl)cccc1-c1cccc(OCCCN2CCC(O)(C(=O)O)CC2)c1C [Example 1036, (R)-1-(3-((3′-((4-(((1-carboxy-2-hydroxyethyl)amino)methyl)-2-chloro-5-((5-cyanopyridin-3-yl)methoxy)phenoxy)methyl)-2,2′-dimethyl-[1,1′-biphenyl]-3-yl)oxy)propyl)-4-hydroxypiperidine-4-carboxylic Acid] | 0.21 to 10 nM |
| Cc1c(COc2cc(OCc3cncc(C#N)c3)c(CN[C@](C)(CO)C(=O)O)cc2Cl)cccc1-c1cccc(OCCCN2CCC(O)(C(=O)O)CC2)c1C [Example 1037, (R)-1-(3-((3′-((4-(((2-carboxy-1-hydroxypropan-2-yl)amino)methyl)-2-chloro-5-((5-cyanopyridin-3-yl)methoxy)phenoxy)methyl)-2,2′-dimethyl-[1,1′-biphenyl]-3-yl)oxy)propyl)-4-hydroxypiperidine-4-carboxylic Acid] | 0.21 to 10 nM |
| COC(=O)C1(O)CCN(CCCOc2cccc(-c3cccc(COc4cc(OCc5cncc(S(C)(=O)=O)c5)c(CN[C@H](CO)C(=O)O)cc4Cl)c3C)c2C)CC1 [Example 1038, (R)-2-((5-chloro-4-((3′-(3-(4-hydroxy-4-(methoxycarbonyl)piperidin-1-yl)propoxy)-2,2′-dimethyl-[1,1′-biphenyl]-3-yl)methoxy)-2-((5-(methylsulfonyl)pyridin-3-yl)methoxy)benzyl)amino)-3-hydroxypropanoic Acid] | 0.21 to 10 nM |
| COC(=O)C1(O)CCN(CCCOc2cccc(-c3cccc(COc4cc(OCc5cncc(S(C)(=O)=O)c5)c(CN[C@@](C)(CO)C(=O)O)cc4Cl)c3C)c2C)CC1 [Example 1039, (S)-2-((5-chloro-4-((3′-(3-(4-hydroxy-4-(methoxycarbonyl)piperidin-1-yl)propoxy)-2,2′-dimethyl-[1,1′-biphenyl]-3-yl)methoxy)-2-((5-(methylsulfonyl)pyridin-3-yl)methoxy)benzyl)amino)-3-hydroxy-2-methylpropanoic Acid] | 0.21 to 10 nM |
| Cc1c(COc2cc(OCc3cncc(S(C)(=O)=O)c3)c(CN[C@H](CO)C(=O)O)cc2Cl)cccc1-c1cccc(OCCCN2CCC(O)(C(=O)O)CC2)c1C [Example 1040, (R)-1-(3-((3′-((4-(((1-carboxy-2-hydroxyethyl)amino)methyl)-2-chloro-5-((5-(methylsulfonyl)pyridin-3-yl)methoxy)phenoxy)methyl)-2,2′-dimethyl-[1,1′-biphenyl]-3-yl)oxy)propyl)-4-hydroxypiperidine-4-carboxylic Acid] | 0.21 to 10 nM |
| Cc1c(COc2cc(OCc3cncc(S(C)(=O)=O)c3)c(CN[C@@](C)(CO)C(=O)O)cc2Cl)cccc1-c1cccc(OCCCN2CCC(O)(C(=O)O)CC2)c1C [Example 1041, (S)-1-(3-((3′-((4-(((2-carboxy-1-hydroxypropan-2-yl)amino)methyl)-2-chloro-5-((5-(methylsulfonyl)pyridin-3-yl)methoxy)phenoxy)methyl)-2,2′-dimethyl-[1,1′-biphenyl]-3-yl)oxy)propyl)-4-hydroxypiperidine-4-carboxylic Acid] | 0.21 to 10 nM |
| Cc1c(COc2cc(OCc3cncc(C#N)c3)c(CN[C@H](CO)C(=O)O)cc2Cl)cccc1-c1cccc(OC[C@@H]2CCCN3CCCC[C@H]23)c1C [Example 1042, (R)-2-((5-chloro-2-((5-cyanopyridin-3-yl)methoxy)-4-((2,2′-dimethyl-3′-(((1R,9aR)-octahydro-1H-quinolizin-1-yl)methoxy)-[1,1′-biphenyl]-3-yl)methoxy)benzyl)amino)-3-hydroxypropanoic Acid] | 0.21 to 10 nM |
| Cc1c(COc2cc(OCc3cncc(C#N)c3)c(CN3CCCC[C@H]3C(=O)O)cc2Cl)cccc1-c1cccc(OC[C@@H]2CCCN3CCCC[C@H]23)c1C [Example 1043, (S)-1-(5-chloro-2-((5-cyanopyridin-3-yl)methoxy)-4-((2,2′-dimethyl-3′-(((1R,9aR)-octahydro-1H-quinolizin-1-yl)methoxy)-[1,1′-biphenyl]-3-yl)methoxy)benzyl)piperidine-2-carboxylic Acid] | 0.21 to 10 nM |
| CCOC(=O)C1(CO)CCN(CCCOc2cccc(-c3cccc(COc4cc(OCc5cncc(S(C)(=O)=O)c5)c(CN[C@](C)(CO)C(=O)O)cc4Cl)c3C)c2C)C1 (stereo partly drawn) [Example 1044, (2R)-2-((5-chloro-4-((3′-(3-(3-(ethoxycarbonyl)-3-(hydroxymethyl)pyrrolidin-1-yl)propoxy)-2,2′-dimethyl-[1,1′-biphenyl]-3-yl)methoxy)-2-((5-(methylsulfonyl)pyridin-3-yl)methoxy)benzyl)amino)-3-hydroxy-2-methylpropanoic Acid] | 0.21 to 10 nM |
| CCOC(=O)C1(CO)CCN(CCCOc2cccc(-c3cccc(COc4cc(OCc5cncc(S(C)(=O)=O)c5)c(CN[C@H](CO)C(=O)O)cc4Cl)c3C)c2C)C1 (stereo partly drawn) [Example 1045, (2R)-2-((5-chloro-4-((3′-(3-(3-(ethoxycarbonyl)-3-(hydroxymethyl)pyrrolidin-1-yl)propoxy)-2,2′-dimethyl-[1,1′-biphenyl]-3-yl)methoxy)-2-((5-(methylsulfonyl)pyridin-3-yl)methoxy)benzyl)amino)-3-hydroxypropanoic Acid] | 0.21 to 10 nM |
| COC(=O)C1(O)CCN(CCCOc2cccc(-c3cccc(COc4cc(OCc5cncc(C#N)c5)c(CN[C@](C)(CO)C(=O)O)cc4Cl)c3C)c2C)C1 (stereo partly drawn) [Example 1046, (2R)-2-((5-chloro-2-((5-cyanopyridin-3-yl)methoxy)-4-((3′-(3-(3-hydroxy-3-(methoxycarbonyl)pyrrolidin-1-yl)propoxy)-2,2′-dimethyl-[1,1′-biphenyl]-3-yl)methoxy)benzyl)amino)-3-hydroxy-2-methylpropanoic Acid] | 0.21 to 10 nM |
| CCOC(=O)C1(CO)CCN(CCCOc2cccc(-c3cccc(COc4cc(OCc5cncc(C#N)c5)c(CN[C@H](CO)C(=O)O)cc4Cl)c3C)c2C)C1 (stereo partly drawn) [Example 1047, (2R)-2-((5-chloro-2-((5-cyanopyridin-3-yl)methoxy)-4-((3′-(3-(3-(ethoxycarbonyl)-3-(hydroxymethyl)pyrrolidin-1-yl)propoxy)-2,2′-dimethyl-[1,1′-biphenyl]-3-yl)methoxy)benzyl)amino)-3-hydroxypropanoic Acid] | 0.21 to 10 nM |
| Cc1c(COc2cc(OCc3cncc(S(C)(=O)=O)c3)c(CN[C@](C)(CO)C(=O)O)cc2Cl)cccc1-c1cccc(OCCCN2CCC(CO)(C(=O)O)C2)c1C (stereo partly drawn) [Example 1048, 1-(3-((3′-((4-((((R)-2-carboxy-1-hydroxypropan-2-yl)amino)methyl)-2-chloro-5-((5-(methylsulfonyl)pyridin-3-yl)methoxy)phenoxy)methyl)-2,2′-dimethyl-[1,1′-biphenyl]-3-yl)oxy)propyl)-3-(hydroxymethyl)pyrrolidine-3-carboxylic Acid] | 0.21 to 10 nM |
| CCOC(=O)C1(CO)CCN(CCCOc2cccc(-c3cccc(COc4cc(OCc5cncc(C#N)c5)c(CN[C@](C)(CO)C(=O)O)cc4Cl)c3C)c2C)C1 (stereo partly drawn) [Example 1049, (2R)-2-((5-chloro-2-((5-cyanopyridin-3-yl)methoxy)-4-((3′-(3-(3-(ethoxycarbonyl)-3-(hydroxymethyl)pyrrolidin-1-yl)propoxy)-2,2′-dimethyl-[1,1′-biphenyl]-3-yl)methoxy)benzyl)amino)-3-hydroxy-2-methylpropanoic Acid] | 0.21 to 10 nM |
| Cc1c(COc2cc(OCc3cncc(S(C)(=O)=O)c3)c(CN[C@H](CO)C(=O)O)cc2Cl)cccc1-c1cccc(OCCCN2CCC(CO)(C(=O)O)C2)c1C (stereo partly drawn) [Example 1050, 1-(3-((3′-((4-((((R)-1-carboxy-2-hydroxyethyl)amino)methyl)-2-chloro-5-((5-(methylsulfonyl)pyridin-3-yl)methoxy)phenoxy)methyl)-2,2′-dimethyl-[1,1′-biphenyl]-3-yl)oxy)propyl)-3-(hydroxymethyl)pyrrolidine-3-carboxylic Acid] | 0.21 to 10 nM |
| Cc1c(COc2cc(OCc3cncc(C#N)c3)c(CN[C@](C)(CO)C(=O)O)cc2Cl)cccc1-c1cccc(OCCCN2CCC(CO)(C(=O)O)C2)c1C (some centres unmarked) [Example 1051] | 0.21 to 10 nM |
